How the values were obtained:
[1] = Rat PK study, single i.g. dose; type: in vivo; settings: female, SD, plasma, PO, 10 mg/kg
Description: The pharmacokinetic (PK) profile of compounds following single i.g in SD rat obtained from […] Laboratory Animal Co., LTD of Shanghai was determined. Three female rats of weight around 220 g were used. Compounds were prepared at 1 mg/ml with the formulation of 10% DMSO+10% solutol HS15+80% (10% HPβCD in water). Blood samples (0.2 mL) were collected at 0 h (pre-dose) and 0.25, 0.5, 1, 2, 4, 8, 24 h time points after administration of compounds at the dose of 10 mg/kg. The collected blood samples were centrifuged without delay and the plasma was separated and transferred into tubes before storage at -70° C. prior to analysis. Aliquots of the plasma unknowns, blank and calibration standards were placed in 1.5 mL tubes and mixed with acetonitrile/methanol (1/1, v/v) containing IS. After vortexing for 5 min, each sample was centrifuged at 14000 rpm at 4° C. for 10 min. The supernatant were injected into the LC-MS/MS system. […] Eluates were analyzed using an API4000 Q-Trap mass spectrometer with a TurboIonSpray interface. Chromatographic separation was done with a mobile phase composed of water with 0.1% formic acid (solution A) and acetonitrile with 0.1% formic acid (solution B). The mobile phase was delivered at a flow rate of 0.6 mL/min, using a stepwise gradient elution program. To improve the sensitivity of the test compound screening, a MRM method in positive electrospray ionization mode was employed. Mass spectrometry data was acquired and analyzed using AB Sciex Analyst version 1.6.2 software. The pharmacokinetic parameters were derived using standard noncompartmental methods with Phoenix WinNonLin Professional Version 8.1.

[2] = test system: Lung cancer cell line NCI-H358 containing KRas G12C mutation; assay: Assay for cell proliferation (Cell-titer Glo, 5 days); type: cell-based, human
Method in brief: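 NCI-H358 (KRas G12C) cells, 2000 per well, attached overnight at 37 °C, 5% CO2, then treated with compound for 5 days at 0.5% DMSO final. Proliferation measured by CellTiter-Glo luminescence after 10 min at RT.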

NCI-H2122 xenograft = assay: NSCLC H2122 xenograft model, tumor volume; type: in vivo, BALB/c nude mice; settings: 60 mg/kg oral once daily vs AMG510 at 60 mg/kg; FIG. 3
Description: All the procedures related to animal handling, care and the treatment in this study were performed according to the guidelines approved by the Institutional Animal Care and Use Committee (IACUC) of SIPPER B&K following the guidance of the Association for Assessment and Accreditation of Laboratory Animal Care (AAALAC). At the time of routine monitoring, the animals were checked for any effects of tumor growth on normal behavior such as mobility, food and water consumption (by looking only), body weight gain/loss (body weights were measured twice weekly), eye/hair matting and any other abnormal effect. Death and observed clinical signs were recorded on the basis of the numbers of animals within each subset.
The NCI-H358, SW837, NCI-H2122 tumor cells were purchased from the American Type Culture Collection (ATCC). Cells were maintained in vitro as monolayer cultured in RPMI-1640 or DMEM medium supplemented with 10% fetal bovine serum, 50 IU/ml penicillin/streptomycin (GIBCO) at 37° C. in an atmosphere of 5% CO2 in air. […] The cells growing in an exponential growth phase were harvested and counted for tumor inoculation. […]
Tumor volume was calculated by measuring two perpendicular diameters using the following formula: (L×W 2)/2 in which L and W refer to the length and width tumor diameter, respectively. Results are expressed as mean and standard deviation of the mean.

AUC(0-t) ([1]; read-out: Rat PO (10 mpk) AUC last): 3.8 µM·h | Cmax ([1]; read-out: Rat PO (10 mpk) Cmax): 1060 nM | bioavailability ([1]; read-out: Rat PO (10 mpk) F %): 54% | IC50 ([2]; Homo sapiens, NCI-H358, 120 h, NCI-H358, 5 days, Cell-titer Glo, read-out: IC50 (nM), Inhibition of NCI-H358 Cell Proliferation): 0.6 nM
SMILES: C=CC(=O)N1C[C@H](C)N(c2nc(=O)n(-c3c(C4CC4)ncnc3C3CC3)c3nc(-c4c(N)cccc4F)c(Cl)cc23)C[C@H]1C [Compound 126]
potency in inhibiting KRAS G12C compared with corresponding isopropyl analogs [2]: better potency | fold more potent: 2-amino-6-fluoro-phenyl compound vs. corresponding 2-fluoro-phenyl compound at R8 ([2]; NCI-H358 IC50 comparison): about 15 × | reducing tumor volume compared with AMG510 (NCI-H2122 xenograft): more effective than AMG510
